Results taken from article PMC7902631, “An ESCRT-dependent step in fatty acid transfer from lipid droplets to mitochondria through VPS13D−TSG101 interactions” (Nature Communications, 2021).

Key:
VPS13D-LTD [1] = target: T1, VPS13D-LTD (Homo sapiens, UniProt Q5THJ4); test: competition with BODIPY-C16, native PAGE; type: binding; details: unlabeled, non-BSA-conjugated palmitic acid; competitor of BODIPY-C16
T1 construct: lipid transfer domain, residues 1-320; pET28a-6xHis-SUMO fusion, tag cleavage not mentioned; expressed in E. coli (DE3), Ni-NTA purified
T1 sequence (Q5THJ4 1-320): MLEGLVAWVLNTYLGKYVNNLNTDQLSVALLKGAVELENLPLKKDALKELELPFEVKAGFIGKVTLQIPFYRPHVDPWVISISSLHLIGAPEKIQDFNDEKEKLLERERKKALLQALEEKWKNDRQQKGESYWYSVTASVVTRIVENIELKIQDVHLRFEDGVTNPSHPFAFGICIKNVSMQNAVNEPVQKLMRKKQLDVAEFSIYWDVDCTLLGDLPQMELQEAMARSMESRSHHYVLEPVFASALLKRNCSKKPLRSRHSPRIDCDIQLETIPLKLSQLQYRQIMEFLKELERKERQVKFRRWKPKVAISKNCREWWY

VPS13D-LTD [2] = target: T1, VPS13D-LTD; test: native PAGE co-migration, fluorescence; type: binding; details: labelled compound; 4 °C, 3 h; 1.5 mg/ml protein
VAB-ΔPSAP-GFP (human) = test: co-IP; GFP-Trap agarose beads (ChromoTek) on lysates of HEK293 cells, by the manufacturer's protocol; GFP-tagged protein held, partner detected by western blot (anti-TSG101 or anti-Halo); 5% input

CCCCCCCCCCCCCCCC(=O)O [palmitic acid]
competition with BODIPY-C16, native PAGE (VPS13D-LTD [1]): palmitic acid, but not OA, could sufficiently outcompete BODIPY-C16 for binding to VPS13D-LTD

O=C(O)CCCCCCCCCCCNc1ccc([N+](=O)[O-])c2nonc12 [C12, NBD-C12]
native PAGE co-migration, fluorescence (VPS13D-LTD [2]): purified VPS13D-LTD could bind NBD-labeled fatty acids C12 (NBD-C12)

Halo-TSG101 (from UniProt Q99816 1-390) (natural protein)
reduction of the interaction against VAB-GFP (VAB-ΔPSAP-GFP (human)): 60%
